From PubChem BioAssay (NCI) come the findings set out here.

Values joined by “and” are separate entries in the source; they are usually repeats but may differ in a detail not shown here. Equal entries are not always repeated.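 Exposure lasted 48 hours, with cells grown in 96-well plates and compounds tested at five concentrations. Here, GI50 denotes the concentration required for 50% inhibition of growth. Definition used: TGI = concentration required for complete inhibition of growth.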 Some results are limits rather than exact numbers.

Among the test systems are A498 renal; CAKI-1 renal; DMS 273 small cell lung; HOP-92 NSCLC; KM20L2 colon; NCI-H522 lung; SNB-19 CNS; SNB-75 CNS; SNB-78 CNS; UO-31 renal; PC-3 prostate.
What all share (assay): inhibition of tumour cell growth, NCI panel, 48 h

As to `COc1cccc2c1C(=O)c1c(O)c3c(c(O)c1C2=O)CC(O)(C(C)=O)CC3O` (stereo not given), the TGI with A498 renal was determined as 17.2 µM; in the assay with CAKI-1 renal, 21.8 µM; in the assay with DMS 273 small cell lung, 15.6 µM; in the assay on HOP-92 NSCLC, 28.9 µM; in the assay on KM20L2 colon, 48.2 µM; in the assay with NCI-H522 lung, 3.09 µM. Also, the TGI in the assay with SNB-19 CNS was found to be 32.8 µM; with SNB-75 CNS, 32.4 µM; in the assay on SNB-78 CNS, 48 µM; in the assay on UO-31 renal, 28.8 µM.
For the compound `Nc1ccn(CCCC(c2ccccc2)P(=O)(O)O)c(=O)n1` (stereo not given), the TGI in the assay on A498 renal, in the assay on CAKI-1 renal, in the assay with DMS 273 small cell lung, in the assay with HOP-92 NSCLC, with KM20L2 colon and in the assay with NCI-H522 lung was over 100 µM in each case. For the same compound, the TGI in the assay on SNB-19 CNS, with SNB-75 CNS, in the assay with SNB-78 CNS and in the assay with UO-31 renal was over 100 µM in each case.
`O=C1C(=Cc2ccc([N+](=O)[O-])o2)C(=O)N(CCc2ccccc2)S(=O)(=O)N1CCc1ccccc1`: the TGI in the assay on DMS 273 small cell lung was over 100 µM; in the assay on HOP-92 NSCLC, 33.5 µM; with KM20L2 colon, over 100 µM; in the assay on NCI-H522 lung, 34.5 µM; with SNB-19 CNS, over 100 µM; in the assay on SNB-75 CNS it was over 100 µM. Moreover, the TGI was 94.9 µM with SNB-78 CNS and over 100 µM in the assay with UO-31 renal.
As to `C[C@]12CCC(=O)C=C1CC[C@@H]1C2CC[C@@]2(C)C1CC[C@@H]2OC(=O)C12OC1CCC2=O` (stereo not given in full), the TGI was found to be 35.6 µM in the assay on A498 renal; 31.1 µM with DMS 273 small cell lung; 37.2 µM with HOP-92 NSCLC; 34.3 µM in the assay on KM20L2 colon; 23.1 µM with NCI-H522 lung; 44.3 µM with SNB-19 CNS. In addition, the TGI with SNB-75 CNS was found to be 33.9 µM; with SNB-78 CNS, 33.9 µM; with UO-31 renal, 30.3 µM.
Regarding `O=C1NC2OC(CO)C(O)C(O)C2O1` (stereo not given), the TGI in the assay with A498 renal, in the assay on CAKI-1 renal, with DMS 273 small cell lung, with HOP-92 NSCLC, in the assay with KM20L2 colon and in the assay on NCI-H522 lung was over 100 µM throughout. Besides, the TGI in the assay on SNB-19 CNS, in the assay with SNB-75 CNS, with SNB-78 CNS and in the assay with UO-31 renal was over 100 µM throughout.
Regarding `COc1ccc(OC)c(-c2cc(=O)c3cc4c(cc3[nH]2)OCO4)c1`, the TGI was over 65.7 µM in the assay with CAKI-1 renal; 20.9 µM in the assay on DMS 273 small cell lung; 41.3 µM in the assay on HOP-92 NSCLC; 23.7 µM in the assay with KM20L2 colon; 9.26 µM in the assay with NCI-H522 lung; over 100 µM in the assay with SNB-19 CNS. In addition, the TGI in the assay with SNB-75 CNS is over 38.1 µM; in the assay with SNB-78 CNS it was over 100 µM; in the assay on UO-31 renal, over 100 µM.
As for `CCOC(=O)C1=C(O)c2ccc(OC)cc2C(=O)C1=O`, the TGI in the assay on A498 renal, with CAKI-1 renal, in the assay on DMS 273 small cell lung, in the assay on HOP-92 NSCLC, in the assay on KM20L2 colon and in the assay with NCI-H522 lung was over 100 µM in each case. Besides, the TGI in the assay with SNB-19 CNS, with SNB-75 CNS, with SNB-78 CNS and in the assay with UO-31 renal was over 100 µM in each case.
Regarding `NC(CS)C(=O)NCCNc1ccc(NCCNC(=O)C(N)CS)c2c1C(=O)c1c(O)ccc(O)c1C2=O` (stereo not given), the TGI is 0.344 µM in the assay with A498 renal; 0.566 µM and 0.104 µM with CAKI-1 renal; 0.195 µM and 1.03 µM in the assay with HOP-92 NSCLC; 1.49 µM and 1.37 µM with KM20L2 colon; 0.421 µM and 0.127 µM with NCI-H522 lung; 1.13 µM with PC-3 prostate. In addition, the TGI is 1.11 µM and 1.21 µM with SNB-19 CNS; 0.2 µM and 0.206 µM in the assay with SNB-75 CNS; 0.477 µM and 0.316 µM in the assay on UO-31 renal. The GI50 in the assay with HOP-92 NSCLC was 0.0416 µM; in the assay on KM20L2 colon, 0.195 µM; in the assay on NCI-H522 lung, 0.0165 µM; in the assay on SNB-75 CNS, 0.0146 µM; with UO-31 renal, 0.0598 µM.
As for `O=P(Nc1cccc(Cl)c1)(Oc1ccccc1)N(CCCl)CCCl` (stereo not given), the TGI with A498 renal is 27.6 µM; in the assay with CAKI-1 renal, 31.5 µM; in the assay with DMS 273 small cell lung it was 27.3 µM; in the assay on HOP-92 NSCLC, 24.7 µM; with KM20L2 colon, 26.7 µM; in the assay on NCI-H522 lung, over 100 µM. For the same compound, the TGI is 30.4 µM with SNB-75 CNS, 43.8 µM in the assay on SNB-78 CNS and over 100 µM with UO-31 renal.
As for `Brc1ccc(C[N+]23CN4CN(CN(C4)C2)C3)cc1`, the TGI in the assay with DMS 273 small cell lung is 52.9 µM; in the assay on KM20L2 colon, over 100 µM; in the assay with NCI-H522 lung it was 32.1 µM; with SNB-19 CNS it was over 100 µM; in the assay on SNB-75 CNS, over 100 µM; in the assay on SNB-78 CNS, over 100 µM. This compound registered a TGI in the assay with UO-31 renal of over 100 µM.
As for `O=C(CSc1nnc(-c2ccc(N=Cc3ccc(Cl)cc3)cc2)o1)Nc1cccc([N+](=O)[O-])c1`, the TGI with DMS 273 small cell lung, in the assay on KM20L2 colon, in the assay with NCI-H522 lung, in the assay with SNB-19 CNS, with SNB-75 CNS and with SNB-78 CNS was over 100 µM each time. Further, the TGI in the assay on UO-31 renal is over 100 µM.
As to `COc1ccc(/C=C(\C2=NC(=O)CS2)c2nc3ccccc3[nH]2)cc1`, the TGI was over 100 µM in the assay on A498 renal; over 100 µM with CAKI-1 renal; over 100 µM with DMS 273 small cell lung; over 100 µM in the assay on HOP-92 NSCLC; over 100 µM with KM20L2 colon; 49.7 µM in the assay with NCI-H522 lung. Further, the TGI in the assay on SNB-19 CNS was over 100 µM; in the assay on SNB-75 CNS it was 71.6 µM; in the assay with SNB-78 CNS, over 100 µM; in the assay with UO-31 renal it was over 100 µM.
For `COc1ccc(N2C(=O)C3C=CC(n4[nH]c(=O)n(Cc5ccccc5)c4=O)CC3C2=O)cc1` (stereo not given), the TGI with A498 renal, with CAKI-1 renal, in the assay with DMS 273 small cell lung, with HOP-92 NSCLC, with KM20L2 colon and in the assay with NCI-H522 lung was over 100 µM each time. In addition, the TGI in the assay on SNB-19 CNS, in the assay with SNB-75 CNS, in the assay with SNB-78 CNS and with UO-31 renal was over 100 µM each time.
Regarding `O=C1C(=O)N(C23CC4CC(CC(C4)C2)C3)C(=S)N1c1ccccc1`, the TGI with A498 renal, with CAKI-1 renal, in the assay on HOP-92 NSCLC, in the assay with NCI-H522 lung, with PC-3 prostate and with SNB-19 CNS was over 100 µM in each case. The TGI with SNB-75 CNS and with UO-31 renal was over 100 µM throughout.
For `O=C1CCc2ccccc2O1`, the TGI in the assay with A498 renal, in the assay with CAKI-1 renal, in the assay on HOP-92 NSCLC, in the assay on NCI-H522 lung, with PC-3 prostate and in the assay on SNB-19 CNS was over 100 µM each time. Further, the TGI in the assay on SNB-75 CNS and in the assay on UO-31 renal was over 100 µM each time.
For the compound `Cc1csc2c(=O)n(COCc3ccccc3)c(=O)[nH]c12`, the TGI in the assay with A498 renal, with CAKI-1 renal, in the assay on HOP-92 NSCLC, in the assay on NCI-H522 lung, in the assay with PC-3 prostate and with SNB-19 CNS was over 100 µM throughout. The TGI in the assay with SNB-75 CNS and with UO-31 renal was over 100 µM each time.
Consider `O=C1C(c2c(O)[nH]c3ccc(I)cc23)=Nc2ccccc21`, for which the TGI in the assay on A498 renal was 5.57 µM; in the assay with CAKI-1 renal, over 96.5 µM; in the assay on HOP-92 NSCLC, 12.4 µM; in the assay with NCI-H522 lung it was over 58.9 µM; with PC-3 prostate, 9.4 µM; with SNB-19 CNS, 42.8 µM. For the same compound, the values for the TGI with SNB-75 CNS and in the assay on UO-31 renal were 17 µM and 14.4 µM, respectively.
